Experimental data from patent US7893098B2, “Pyrrole and pyrazole DAAO inhibitors” (Sepracor Inc., priority 2003, dated 2011).

Tested on: not listed separately
Assay: Rat brain uptake, carotid perfusion
Format: in vivo
Settings: 30 second perfusion into left hemisphere, PBS pH 7.4; N of 4 rats
Source text: Experiments that evaluate the rat brain penetration of test compounds use a perfusion system where the left carotid artery is cannulated and the branch arteries are tied off. The test compound plus internal controls are perfused for 30 seconds into the left hemisphere in phosphate buffered saline at pH 7.4. The internal controls are atenolol (with low brain uptake) and antipyrine (with high brain uptake). After a 30 second washout with perfusate, the brain is removed surgically. The left hemisphere is homogenized; test compounds (plus internal controls) are extracted from brain homogenate, and analyzed using LC/MS/MS to determine the concentration of test compound and internal controls in the brain.

Compound	Rat Brain Uptake Rate, pmol/g brain/sec [pmol/g brain/sec]
CC(C)CCCc1cc(C(=O)O)n[nH]1 [Compound 18, 5-(4-methylpentyl)-1H-pyrazole-3-carboxylic acid]	17
O=C(O)c1cc(CCc2ccccc2)[nH]n1 [Compound 21, 5-phenethyl-1H-pyrazole-3-carboxylic acid]	6
O=C(O)c1cc(CCc2ccc(Cl)cc2)c[nH]1 [Compound 39, 4-[2-(4-chlorophenyl)-ethyl]-1H-pyrrole-2-carboxylic acid]	204
O=C(O)c1n[nH]c2c1CCC2 [drawing 70]	6

Target: Purified pig DAAO (Sus scrofa, UniProt P00371)
Sequence (P00371 whole entry): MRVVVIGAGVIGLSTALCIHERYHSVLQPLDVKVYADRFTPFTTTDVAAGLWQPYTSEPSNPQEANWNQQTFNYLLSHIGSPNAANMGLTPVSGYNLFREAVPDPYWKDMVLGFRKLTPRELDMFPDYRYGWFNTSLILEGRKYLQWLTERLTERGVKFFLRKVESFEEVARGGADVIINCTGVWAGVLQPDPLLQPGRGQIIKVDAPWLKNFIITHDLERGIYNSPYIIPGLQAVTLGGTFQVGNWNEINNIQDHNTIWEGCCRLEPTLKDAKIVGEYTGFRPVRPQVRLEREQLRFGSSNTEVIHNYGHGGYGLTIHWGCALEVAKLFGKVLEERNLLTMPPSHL
Assay: In vitro measurement of DAAO activity (Amplex Red H2O2 / phenylglycine assay)
Format: biochemical
Settings: read-out: Inhibition of DAAO, IC50
Description: Purified pig DAAO, added to a buffered mixture of 50 mM D-Serine produces H202 in stoichiometric amounts for each D-Serine molecule oxidized. H202 production can be monitored with a commercially available dye Amplex Red, which in the presence of H202, is converted to the fluorescent product resorufin. For each described inhibitor, the fluorescence was also measured during additions of 80 μM H202 in the absence of DAAO, to control for artifactual inhibition of the dye conversion, and to quantify the amount of H202 produced. In an alternative assay of DAAO activity, the purified pig DAAO is added to buffered mixture of 1 mM phenylglycine in the presence of compounds. The activity of DAAO is monitored spectrophotometrically by its enzymatic conversion of phenylglycine to benzoylformic acid with optical absorption at 252 nm.
Inhibitors of DAAO's enzymatic cycle were serially diluted to reduce the level of inhibition. The parameters of a non-linear equation were adjusted to fit the resulting series of inhibition levels to extrapolate the concentration of compound where 50% inhibition is achieved (IC50). These numbers are averaged for the number (n) of independent measurements (on separate days) of the inhibition.

Compound	IC50 [µM]
O=C(O)c1cc(CCc2ccccc2)c[nH]1	< 1
CC1CCc2c(C(=O)O)n[nH]c2C1 (centres unmarked)	< 100
O=C(O)c1n[nH]c2c1CCCC2	< 1
CC(C)c1cc(C(=O)O)n[nH]1	< 1
O=C(O)c1cc([N+](=O)[O-])[nH]n1	< 1
O=C(O)c1n[nH]cc1[N+](=O)[O-]	< 1
CC1CCCc2c(C(=O)O)n[nH]c21 (centres unmarked)	< 10
O=C(O)c1cc(CCc2ccccc2)on1	< 100
O=C(Cc1ccc(Cl)cc1)c1c[nH]c(C(=O)O)c1	< 100
Cc1cc(C(=O)O)no1	< 100
O=C(O)c1n[nH]c2c1CCCC2C1CCCCC1 (centres unmarked)	< 100
O=C(O)c1cc[nH]n1	< 100
CCCCCCCCCCC(=O)c1c[nH]c(C(=O)O)c1	< 100
O=C(O)c1n[nH]c2c1CCCCCC2	< 10
Cc1cc(C(=O)O)n[nH]1	< 10
O=C(O)c1ccc[nH]1	< 10
O=C(O)c1cc2c([nH]1)CCCC2	< 10
O=C(O)c1n[nH]c2c1COCC2	< 10
CC(C)C1CCc2[nH]nc(C(=O)O)c2C1 (centres unmarked)	< 100
O=C(O)c1n[nH]c2c1CCCC2CCc1ccccc1 (centres unmarked)	< 100
O=C(O)c1n[nH]c2c1CC(OCc1ccccc1)CC2 (centres unmarked)	< 100
O=C(Cc1ccccc1)c1c[nH]c(C(=O)O)c1	< 100
CC(=O)c1c[nH]c(C(=O)O)c1	< 100
Cc1cc(C)c(C(=O)O)[nH]1	> 100
O=C(O)c1n[nH]c2c1CCCC2Cc1ccccc1 (centres unmarked)	< 10

Compound	IC50 [µM]
CC1CCc2[nH]nc(C(=O)O)c2C1 (centres unmarked)	< 10
O=C(O)c1n[nH]c2c1CCc1ccccc1-2	> 100
CC1(C)CCc2c(C(=O)O)n[nH]c21 [Compound 3, 6,6-Dimethyl-1,4,5,6-tetrahydrocyclopentapyrazole-3-carboxylic acid]	< 10
CC1CCc2c(C(=O)O)n[nH]c21 (centres unmarked) [Compound 6, 6-methyl-1,4,5,6-tetrahydrocyclopentapyrazole-3-carboxylic acid]	< 10
O=C(O)c1n[nH]c2c1CCCCC2 [Compound 15, 1,4,5,6,7,8-Hexahydrocycloheptapyrazole-3-carboxylic acid]	< 10
CC(C)CCCc1cc(C(=O)O)n[nH]1 [Compound 18, 5-(4-methylpentyl)-1H-pyrazole-3-carboxylic acid]	< 1
O=C(O)c1cc(CCc2ccccc2)[nH]n1 [Compound 21, 5-phenethyl-1H-pyrazole-3-carboxylic acid]	< 1
COc1ccc(CCc2cc(C(=O)O)n[nH]2)cc1 [Compound 24, 5-[2-(4-Methoxyphenyl)-ethyl]-1H-pyrazole-3-carboxylic acid]	< 1
O=C(O)c1ccc(Cc2ccccc2)[nH]1 [Compound 32, 5-benzyl-1H-pyrrole-2-carboxylic acid]	> 100
O=C(O)c1ccc(CCc2ccccc2)[nH]1 [Compound 36, 5-phenethyl-1H-pyrrole-2-carboxylic acid]	< 100
O=C(O)c1cc(COc2ccccc2)[nH]n1 [Compound 42, 5-phenoxymethyl-1H-pyrazole-3-carboxylic acid]	< 1
O=C(O)c1cc(CCCc2ccccc2)c[nH]1 [Compound 45, 4-(3-phenylpropyl)-1H-pyrrole-2-carboxylic acid]	< 100
CC(C)CCc1cc(C(=O)O)n[nH]1 [Compound 48, 5-(3-methylbutyl)-1H-pyrazole-3-carboxylic acid]	< 10
CC(C)=CCCc1cc(C(=O)O)n[nH]1 [Compound 51, 5-(4-Methylpent-3-enyl)-1H-pyrazole-3-carboxylic acid]	< 1
CC1CCCC(C)(C)C1CCc1cc(C(=O)O)n[nH]1 (centres unmarked) [Compound 54, 5-[2-(2,2,6-trimethylcyclohexyl)-ethyl]-1H-pyrazole-3-carboxylic acid]	< 100
CC(Cc1cc(C(=O)O)n[nH]1)c1ccccc1 (centres unmarked) [Compound 58, 5-(2-phenylpropyl)-1H-pyrazole-3-carboxylic acid]	< 1
CC(Cc1ccccc1)c1cc(C(=O)O)n[nH]1 (centres unmarked) [Compound 62, 5-(1-methyl-2-phenylethyl)-1H-pyrazole-3-carboxylic acid]	< 1
O=C(O)c1cc(CCc2ccccc2Br)c[nH]1 [Compound 65, 4-[2-(2-bromophenyl)-ethyl]-1H-pyrrole-2-carboxylic acid]	< 1
O=C(O)c1cc(CCc2ccc(Cl)cc2)n[nH]1 [Compound 69, 5-[2-(4-Chlorophenyl)-ethyl]-1H-pyrazole-3-carboxylic acid]	< 1
O=C(O)c1cc(CCc2ccc(Cl)cc2)c(Br)[nH]1 [Compound 70, 5-bromo-4-[2-(4-chlorophenyl)-ethyl]-1H-pyrrole-2-carboxylic acid]	< 0.1
O=C(O)c1cc(CCc2ccc(F)cc2)c[nH]1 [Compound 73, 4-[2-(4-fluorophenyl)-ethyl]-1H-pyrrole-2-carboxylic acid]	< 1
O=C(O)c1cc(CCCC2CCCC2)c[nH]1 [Compound 76, 4-(3-Cyclopentylpropyl)-1H-pyrrole-2-carboxylic acid]	< 10
C[C@@H](Cc1cc(C(=O)O)n[nH]1)c1ccccc1 [Compound 80, (S)-5-(2-phenylpropyl)-1H-pyrazole-3-carboxylic acid]	< 10
O=C(O)c1n[nH]c2c1CCC2 [drawing 44]	< 1
